Experiments:
[1] = tested on: ethylene binding site in tobacco leaves; experiment: Ethylene binding (14C-ethylene) in tobacco leaves, incl. Scatchard DACP-ethylene competition; design: species or system Nicotiana tabacum L.; conditions: for Binding (% of untreated control), Tobacco leaves, Dark / Binding (% of untreated control), Tobacco leaves, Light: measured 48 hours after exposure
Method: (§1) Plant material was exposed to ^14 C-ethylene in the presence or absence of unlabeled ethylene. Usually exposure was for two hours. After this time, material was aired for two minutes and placed in 250 or 500 ml jars containing mercury perchlorate in liquid scintillation vials which also contained fiberglass filter to increase the surface area for 24 hours. The vials were then removed, scintillation fluid added and the samples counted in a liquid scintillation counter. All measurements were corrected for unbound ethylene. When the number of binding sites inactivated by DACP in the light were desired, samples were aired 48 hours before measuring ethylene binding to allow the DACP not undergoing a light reaction to diffuse away.
(§2) Experiments in the Examples below were carried out under normal laboratory fluorescent lights. The light intensity was 560 lux at the laboratory bench level. Normally treatment was inside 2.5 liter desiccators and the amount of light reaching the plant material was measured to average 448 lux or 80% of the incident light. When more light was needed, desiccators were moved to a position where the intensity was 2700 lux outside the desiccators. The amount of light reaching the plant material was measured to be 2160 lux.
Tobacco leaves (Nicotiana tabacum L.) were grown in a greenhouse. Leaves were harvested when approximately 10 cm in length, the midrib removed and allowed to stand overnight for wound ethylene to subside. After incubating tobacco leaves with DACP for three hours under fluorescent lights at 448 lux of fluorescent light, some of the ethylene binding site present, as assayed by ^14 C-labeled ethylene disappears. As the concentration of DACP increases, the amount of binding site remaining decreases. The curve (FIG. 1) appears to be biphasic with a decrease of 80% of binding between 0 and 40 μl/l at DACP. Addition of an additional 80 μl/l of DACP reduced binding further 10%. […] In all previous cases, compounds diffused from the binding site with a half life of three to six hours.
(§3) Scatchard plots are used to determine the binding constants of compounds. An underlying assumption using this method is that the reaction is reversible. Using DACP in the light leads to an irreversible complex and the Scatchard plot is not valid. It can be made and compared with the competition in the dark to evaluate the relative effectiveness of the compound in the light versus dark. FIGS. 6 and 7 represent plots for tobacco leaves and mung bean sprouts in the light and in the dark. It can be seen from these two figures that there are apparently two classes of sites present in both tobacco leaves and mung bean sprouts. The values are much lower in the light which would be expected if the site is being permanently removed. A greater portion of the binding sites appears to be occupied in the competition experiments (FIGS. 6, 7) than in experiments in which added ethylene is not present (FIGS. 3, 4, 5).

mung bean seedlings = experiment: Growth inhibition of mung bean seedlings by ethylene; type: in vivo, Vigna radiata L.
Method: Mung beans (Vigna radiata L.) were germinated in the dark for four days. At this point 10-12 sprouts were placed in 3 liter containers, and treated with DACP and ethylene as indicated in the individual Examples below. Ethylene was changed each day and seedlings were retreated with DACP at seven days. The height was measured at ten days. […]

[2] = tested on: ethylene binding site in mung bean sprouts; experiment: Ethylene binding (14C-ethylene) in mung bean sprouts, incl. Scatchard DACP-ethylene competition; design: species or system Vigna radiata L.; conditions: for Binding (% of untreated control), Mung bean sprouts, Dark / Binding (% of untreated control), Mung bean sprouts, Light: measured 24 hours after exposure
Method: as §1
Mung beans (Vigna radiata L.) were germinated in the dark for four days. At this point 10-12 sprouts were placed in 3 liter containers, and treated with DACP and ethylene as indicated in the individual Examples below. Ethylene was changed each day and seedlings were retreated with DACP at seven days. The height was measured at ten days. Light was 560 lux throughout the experiment after the four-day germination in the dark.
as §2, §3

ethylene binding = conditions: Plant Growth Reg. 9, 157-164 (1990); cited from earlier work
beans = experiment: Ethylene-induced leaf abscission in beans; type: in vivo, Phaseolus vulgaris; conditions: DACP vapor
Carnation = experiment: Cut flower longevity, carnation; type: in vivo, Dianthus caryophyllus; conditions: volatile DACP
Tomato fruit = experiment: Tomato ripening (red/green reflectance ratio); type: in vivo, Lycopersicon esculentum, Mill; conditions: 25° C.
Method: Plant Material. Tomatoes (Lycopersicon esculentum, Mill) were obtained from a wholesale distributor.
Chemicals. DACP was prepared as previously described and kept as a 4-8% solution in hexane. Treatment was in a 3 l container. DACP was pipetted as a hexane solution onto paper towel to facilitate evaporation. After sealing, the containers were kept in darkness or exposed to 448 lux of fluorescent light for 24 hours. After 24 hours, containers were aired out for 24 hours. Those containers kept in darkness were aired in darkness. Subsequently the ethylene treatment was started and all samples were kept in 448 lux of fluorescent light. The gas phase was changed each day.
Ripening. Ripening was measured with an Agtron reflectance spectrophotometer (Magnson Engineers, Inc., Instruments Division, San Jose, Calif.) which measures the ratio of red/green light reflected from the tomato.

Potted poinsettia = experiment: Protection of potted poinsettia from ethylene; type: in vivo, Euphorbia pulcherima; conditions: volatile DACP
Method: Potted poinsettia (Euphorbia pulcherima) is treated with volatile DACP in the same manner as described above, and then exposed to ethylene to determine if the DACP would protect the poinsettia from the ethylene.

Cut purple petunias = experiment: Cut flower longevity, petunias; type: in vivo, Petunia hydrida; conditions: volatile DACP
Method: Cut purple petunias (Petunia hydrida) are treated with volatile DACP in the same manner as described above.

[3] = DARK, DACP 120 ul/l + 10 μl/l E
[4] = DARK, DACP 120 ul/l as a gas, no ethylene
[5] = LIGHT, DACP 120 ul/l + 10 μl/l E
[6] = LIGHT, DACP 120 ul/l + 100 μl/l E
[7] = LIGHT, DACP 120 ul/l as a gas, no ethylene

Compound: C=C [Ethylene]
- Binding (% of untreated control), Tobacco leaves, Dark [1]: 100 % of untreated control
- Binding (% of untreated control), Tobacco leaves, Light [1]: 100 % of untreated control
- % of Control (mung bean seedlings; DARK, 10 μl/l E): 16 % of Control
- Height (cm) (mung bean seedlings; DARK, 10 μl/l E): 1.5 cm
- % of Control (mung bean seedlings; LIGHT, 10 μl/l E): 16 % of Control
- Height (cm) (mung bean seedlings; LIGHT, 10 μl/l E): 1.5 cm
- % of Control (mung bean seedlings; LIGHT, 1000 μl/l E): 16 % of Control
- Height (cm) (mung bean seedlings; LIGHT, 1000 μl/l E): 1.5 cm
- 1/2 maximum of ethylene for growth inhibition (Lineweaver-Burk plot) (mung bean seedlings; after exposure to DACP): 50 μl/l
- Binding (% of untreated control), Mung bean sprouts, Dark [2]: 100 % of untreated control
- Binding (% of untreated control), Mung bean sprouts, Light [2]: 100 % of untreated control

Compound: C1=CCC=C1 [cyclopentadiene]
- blocking of ethylene binding (ethylene binding): effective blocking agent for ethylene binding

Compound: [N-]=[N+]=C1C=CC=C1 [Diazocyclopentadiene]
- Binding (% of untreated control), Tobacco leaves, Dark [1]: 100 % of untreated control
- Binding (% of untreated control), Tobacco leaves, Light [1]: 27 % of untreated control
- further reduction of binding ([1]; additional 80 μl/l of DACP, three hours at 448 lux (FIG. 1), 180 min): 10%
- decrease of binding ([1]; between 0 and 40 μl/l DACP, three hours at 448 lux fluorescent light (FIG. 1), 180 min): 80%
- half life of reappearance of the binding site after DACP is removed ([1]; in the dark, 245 μl/l (gas) DACP (FIG. 2A)): about 15 hours
- binding site after incubation with DACP ([1]; incubated in darkness, 245 μl/l (gas) DACP (FIG. 2A)): most of the binding site disappears
- reappearance of the binding site after DACP is removed ([1]; leaves preincubated in the light before removing the DACP (FIG. 2A)): does not reappear or if it does it does so only very slowly over many days
- amount of binding site after 24 additional hours ([1]; same leaves re-assayed without retreating with DACP): appears to remain constant
- amount of binding site inactivated, prebound DACP versus DACP present during the light treatment ([1]; two hours DACP in the dark, aired one hour, then light): No difference
- ethylene-induced leaf abscission (beans): found to prevent ethylene-induced leaf abscission
- longevity of the flower (Carnation): likewise found to increase
- % of Control (mung bean seedlings; [3]): 16 % of Control
- Height (cm) (mung bean seedlings; [3]): 1.5 cm
- % of Control (mung bean seedlings; [4]): 94 % of Control
- Height (cm) (mung bean seedlings; [4]): 9.0 cm
- % of Control (mung bean seedlings; [5]): 80 % of Control
- Height (cm) (mung bean seedlings; [5]): 7.6 cm
- % of Control (mung bean seedlings; [6]): 53 % of Control
- Height (cm) (mung bean seedlings; [6]): 5.0 cm
- Height (cm) (mung bean seedlings; LIGHT, DACP 120 ul/l + 1000 μl/l E): 2.3 cm
- % of Control (mung bean seedlings; LIGHT, DACP 120 ul/l + 1000 μl/l E, 14400 min): 3.6 % of Control
- % of Control (mung bean seedlings; [7]): 93 % of Control
- Height (cm) (mung bean seedlings; [7]): 8.9 cm
- time by which all of the tomatoes were nearly ripe (Tomato fruit; DACP in the light): ≤ 25 days
- ratio of red to green (Tomato fruit; single exposure in the light, whether or not 1000 μl/l of ethylene was present (FIG. 8)): remained constant for ten days
- effect on ripening (Tomato fruit; DACP applied in the dark): only a small effect
- time to ripe as indicated by the red/green ratio (Tomato fruit; DACP applied in the dark): ripe in ten days
- signs of injury from DACP (Potted poinsettia): No signs of injury
- death of the flowers (cyanthum) in response to ethylene (Potted poinsettia; then exposed to ethylene): died in response to the ethylene in the controls but not on the DACP treated plants
- time in which most of the light reaction has occurred ([2]; 448 lux, presaturated site (FIG. 3)): ≤ 30 min
- Binding (% of untreated control), Mung bean sprouts, Dark [2]: 100 % of untreated control
- Binding (% of untreated control), Mung bean sprouts, Light [2]: 24 % of untreated control
- time in which most of the decrease in binding occurs (diffusion to the binding site) ([2]; after release as a liquid (FIG. 3)): ≤ 15 min
- time for 1/2 of the binding site to be regenerated ([2]; in darkness, 245 μl/l (gas) DACP (FIG. 2B)): about two
- longevity of the flower (Cut purple petunias): found to increase
